# Reference: patent US4172891A, “Cephalosporins” (Takeda Chemical Industries, Inc., priority 1976, dated 1979)
# Like-named read-outs stand apart in the source and are kept apart here.
# What was measured:
# E. coli T-7 = assay: Minimum Inhibitory Concentration, agar dilution, E. coli T-7; assay type: cell-based; conditions: Escherichia coli
# Excerpt: (§1) […]. | Minimum Inhibitory Concentrations (mcg/ml, agar dilution)
# P. rettgeri GN 4733 = assay: Minimum Inhibitory Concentration, agar dilution, P. rettgeri GN 4733; assay type: cell-based, Proteus rettgeri; conditions: Providencia rettgeri
# Excerpt: as §1
# Cit. freundii GN 1706 = assay: Minimum Inhibitory Concentration, agar dilution, Cit. freundii GN 1706; assay type: cell-based; conditions: Citrobacter freundii
# Excerpt: as §1
# K. pneumoniae DT = assay: Minimum Inhibitory Concentration, agar dilution, K. pneumoniae DT; assay type: cell-based; conditions: Klebsiella pneumoniae, read-out: Minimum Inhibitory Concentration
# Excerpt: as §1
# P. rettgeri 8(TNO 336) = assay: Minimum Inhibitory Concentration, agar dilution, P. rettgeri 8(TNO 336); assay type: cell-based, Proteus rettgeri; conditions: Providencia rettgeri
# Excerpt: as §1
# P. vulgaris IFO 3988 = assay: Minimum Inhibitory Concentration, agar dilution, P. vulgaris IFO 3988; assay type: cell-based; conditions: Proteus vulgaris
# Excerpt: as §1
# P. mirabilis GN 4359 = assay: Minimum Inhibitory Concentration, agar dilution, P. mirabilis GN 4359; assay type: cell-based; conditions: Proteus mirabilis
# Excerpt: as §1
# Cit. freundii GN 99 = assay: Minimum Inhibitory Concentration, agar dilution, Cit. freundii GN 99; assay type: cell-based; conditions: Citrobacter freundii
# Excerpt: as §1
# E. coli NIHJ = assay: Minimum Inhibitory Concentration, agar dilution, E. coli NIHJ; assay type: cell-based; conditions: Escherichia coli, read-out: Minimum Inhibitory Concentration
# Excerpt: as §1
# E. coli O-111 = assay: Minimum Inhibitory Concentration, agar dilution, E. coli O-111; assay type: cell-based; conditions: Escherichia coli
# Excerpt: Following each example is a tabulation of the minimal inhibitory concentrations (MIC) of the present compound [I] obtained in accordance with the particular example against several representative gram-negative bacteria and the corresponding concentrations of cephaloridine [7-(2-thienylacetamido)-3-(1-pyridyl)methyl-3-cephem-4-carboxylic acid betaine] and cefazolin [sodium 7-(1H-tetrazol-1-yl)acetamido-3-(2-methyl-1,3,4-thiadiazol-5-yl)thiomethyl-3-cephem-4-carboxylate], both of which are typical cephalosporins commercially available and clinically accepted nowadays [The New England Journal of Medicine 294, 24 (1976) and Journal of Pharmaceutical Science 64, 1899 (1975)]. There are also shown the effective doses of the typical compounds of this invention on the mice infected with Escherichia coli in comparison with that of cephaloridine.
# Minimum Inhibitory Concentrations (mcg/ml, agar dilution)
# P. morganii IFO 3168 = assay: Minimum Inhibitory Concentration, agar dilution, P. morganii IFO 3168; assay type: cell-based, Proteus morganii; conditions: Morganella morganii
# Excerpt: as §1
# K. pneumoniae GN 3835 = assay: Minimum Inhibitory Concentration, agar dilution, K. pneumoniae GN 3835; assay type: cell-based; conditions: Klebsiella pneumoniae
# Excerpt: as §1
# Ent. cloacae IFO 12937 = assay: Minimum Inhibitory Concentration, agar dilution, Ent. cloacae IFO 12937; assay type: cell-based; conditions: Enterobacter cloacae
# [1] = T7, E. coli T-7, agar dilution, read-out: Minimum Inhibitory Concentration
# [2] = GN4733, P. rettgeri GN 4733, agar dilution, read-out: Minimum Inhibitory Concentration
# [3] = GN1706, Cit. freundii GN 1706, agar dilution, read-out: Minimum Inhibitory Concentration
# [4] = K. pneumoniae DT, agar dilution
# [5] = P. rettgeri 8(TNO 336), read-out: Minimum Inhibitory Concentration
# [6] = IFO3988, P. vulgaris IFO 3988, agar dilution, read-out: Minimum Inhibitory Concentration
# [7] = GN4359, P. mirabilis GN 4359, agar dilution, read-out: Minimum Inhibitory Concentration
# [8] = GN99, Cit. freundii GN 99, agar dilution, read-out: Minimum Inhibitory Concentration
# [9] = IFO3168, P. morganii IFO 3168, agar dilution, read-out: Minimum Inhibitory Concentration
# [10] = O111, E. coli O-111, agar dilution, read-out: Minimum Inhibitory Concentration
# [11] = T7, read-out: Minimum Inhibitory Concentration
# [12] = GN4733, read-out: Minimum Inhibitory Concentration
# [13] = GN1706, read-out: Minimum Inhibitory Concentration
# [14] = GN3835, read-out: Minimum Inhibitory Concentration
# [15] = read-out: Minimum Inhibitory Concentration, P. rettgeri 8(TNO 336)
# [16] = IFO3988, read-out: Minimum Inhibitory Concentration
# [17] = GN4359, read-out: Minimum Inhibitory Concentration
# [18] = GN99, read-out: Minimum Inhibitory Concentration
# [19] = IFO3168, read-out: Minimum Inhibitory Concentration
# [20] = GN3835, K. pneumoniae GN 3835, agar dilution, read-out: Minimum Inhibitory Concentration
Structure (SMILES),MIC (E. coli T-7; [1]) [µg/mL],MIC (P. rettgeri GN 4733; [2]) [µg/mL],MIC (Cit. freundii GN 1706; [3]) [µg/mL],MIC (K. pneumoniae DT; [4]) [µg/mL],MIC (P. rettgeri 8(TNO 336); [5]) [µg/mL],MIC (P. vulgaris IFO 3988; [6]) [µg/mL],MIC (P. mirabilis GN 4359; [7]) [µg/mL],MIC (Cit. freundii GN 99; [8]) [µg/mL],"MIC (E. coli NIHJ; E. coli NIHJ, agar dilution) [µg/mL]",MIC (P. morganii IFO 3168; [9]) [µg/mL],MIC (E. coli O-111; [10]) [µg/mL],MIC (E. coli T-7; [11]) [µg/mL],MIC (P. rettgeri GN 4733; [12]) [µg/mL],MIC (Cit. freundii GN 1706; [13]) [µg/mL],MIC (K. pneumoniae DT) [µg/mL],MIC (K. pneumoniae GN 3835; [14]) [µg/mL],MIC (P. rettgeri 8(TNO 336); [15]) [µg/mL],MIC (P. vulgaris IFO 3988; [16]) [µg/mL],MIC (P. mirabilis GN 4359; [17]) [µg/mL],MIC (Cit. freundii GN 99; [18]) [µg/mL],also measured
"N=c1scc(CC(=O)NC2C(=O)N3C(C(=O)O)=C(CSc4nnc(C(F)(F)F)s4)CSC23)n1O (stereo not drawn) [Example 16, sodium 7-[2-(2-imino-3-hydroxy-4-thiazolin-4-yl)acetamido]-3-(2-trifluorometyl-1,3,4-thiadiazol-5-yl)thiomethyl-3-cephem-4-carboxylate]",12.5,1.56,6.25,0.39,≤ 0.012,0.2,0.78,0.78,0.78,3.13,–,–,–,–,–,–,–,–,–,–,"MIC (E. coli O-111; O111, read-out: Minimum Inhibitory Concentration): 0.39 µg/mL"
"Cc1nsc(SCC2=C(C(=O)O)N3C(=O)C(NC(=O)Cc4csc(=N)n4O)C3SC2)n1 (stereo not drawn) [Example 15, sodium 7-[2-(2-imino-3-hydroxy-4-thiazolin-4-yl)acetamido]-3-(3-methyl-1,2,4-thiadiazol-5-yl) thiomethyl-3-cephem-4-carboxylate]",6.25,0.2,12.5,0.1,≤ 0.012,0.1,0.1,0.78,0.39,1.56,0.1,–,–,–,–,–,–,–,–,–,–
"Cc1nnc(SCC2=C(C(=O)[O-])N3C(=O)C(NC(=O)Cn4cnnn4)[C@H]3SC2)s1.[Na+] (stereo partly drawn) [Cefazolin, sodium 7-(1H-tetrazol-1-yl)acetamido-3-(2-methyl-1,3,4-thiadiazol-5-yl)thiomethyl-3-cephem-4-carboxylate, reference compound]",–,–,–,–,–,–,–,–,–,–,1.56,> 100,> 100,> 100,1.56,12.5,0.2,3.13,3.13,50,MIC (E. coli NIHJ): 1.56 µg/mL; MIC (P. morganii IFO 3168; [19]): > 100 µg/mL
"N=c1scc(CC(=O)NC2C(=O)N3C(C(=O)O)=C(CSc4nnnn4CCO)CSC23)n1O (stereo not drawn) [Example 17, sodium 7-[2-(2-imino-3-hydroxy-4-thiazolin-4-yl)acetamido]-3-[1-(2-hydroxyethyl)-1H-tetrazol-5-yl]thiomethyl-3-cephem-4-carboxylate]",1.56,0.05,12.5,0.05,≤ 0.012,0.2,0.1,0.39,0.1,0.39,0.05,–,–,–,–,–,–,–,–,–,MIC (K. pneumoniae GN 3835; [20]): 0.1 µg/mL
"Cn1nnnc1SCC1=C(C(=O)O)N2C(=O)C(NC(=O)Cc3csc(=N)n3O)C2SC1 (stereo not drawn) [Example 5, sodium 7-[2-(2-imino-3-hydroxy-4-thiazolin-4-yl)acetamido]-3-(1-methyltetrazol-5-yl) thiomethyl-3-cephem-4-carboxylate]",1.56,0.05,0.78,0.05,≤ 0.03,0.2,0.1,0.39,0.05,0.78,≤ 0.03,–,–,–,–,–,–,–,–,–,"MIC (Ent. cloacae IFO 12937; IFO12937, Ent. cloacae IFO 12937, agar dilution, read-out: Minimum Inhibitory Concentration): 6.25 µg/mL; MIC (K. pneumoniae GN 3835; [20]): 0.1 µg/mL"
"Cn1c(CO)nnc1SCC1=C(C(=O)[O-])N2C(=O)C(NC(=O)Cc3csc(=N)n3O)[C@H]2SC1.[Na+] (stereo partly drawn) [Example 8, sodium 7-[2-(2-imino-3-hydroxy-4-thiazolin-4-yl)acetamido]-3-(3-hydroxymethyl-4-methyl-1,2,4-triazol-5-yl)thiomethyl-3-cephem-4-carboxylate]",–,–,–,–,–,–,–,–,–,–,≤ 0.2,1.56,≤ 0.2,3.13,≤ 0.2,≤ 0.2,≤ 0.2,0.39,≤ 0.2,0.78,"MIC (Ent. cloacae IFO 12937; IFO12937, read-out: Minimum Inhibitory Concentration): 12.5 µg/mL; MIC (E. coli NIHJ): ≤ 0.2 µg/mL; MIC (P. morganii IFO 3168; [19]): ≤ 0.2 µg/mL"
